Assay results: US11213563B2, “Polypeptide and use thereof” (Genoimmune Therapeutics Co., Ltd., priority 2016, dated 2022)

Key:
T2 cells = assay: LDH release assay of CD8+ T cell killing activity; format: cell-based, human; parameters: Killing efficiency: concentration or dose not given beside the values; settings: for Killing efficiency: 4 hours; for Killing of T2 cells loaded with the mutant polypeptide by activated T cells / Killing of T2 cells loaded with the wild-type polypeptide by activated T cells: ratio of effector cells to target cells of 1:1 or 1:10 (so in the source)
Procedure: The mixture of cells collected in the example 3 were incubated with the T2 cells loaded with the mutant polypeptide (depicted in […], SEQ ID NO:1) or the wild-type polypeptide (depicted in […], SEQ ID NO:7), or the T2 cells without polypeptide respectively for 4 hours; after which […], cell supernatant collected from each well was individually added into 50 μL substrate mixture of LDH for catalyzation of the LDH substrate, and the absorbance at wavelengths of 490 nm and 680 nm (as a reference) is measured, where a maximum release well, a volume correction well, a medium alone well, a spontaneous release well of effector cell and a spontaneous release well of target well as different control wells, as well effector cells (T cells) and target cells (T2 cell) in different ratios as experiment wells are set in triplicate.
The killing efficiency of CD8^+ T cells to T2 cells is calculated by the following formula: Killing efficiency (%)=(experiment well−spontaneous release well of effector cell−spontaneous release well of target well+medium alone well)/(maximum release well of target well-volume correction well-spontaneous release well of target well+medium alone well)×100%.

[1] = system: human non-small cell lung adenocarcinoma cell line H2087-polypeptide FILDGLYSV; assay: Polypeptide + Freund's adjuvant vaccine in subcutaneous tumor-modeled NOD/SCID mice; format: in vivo; settings: adjuvant+polypeptide 100 μg s.c., 4 immunizations; vs adjuvant alone and adjuvant+wild-type polypeptide groups
Procedure: (§1) After isolated with Ficoll solution from 600 to 900 ml anticoagulant peripheral blood from a healthy volunteer, the collected PBMCs in a concentration of 2×10^7 cells/0.5 ml were intraperitoneally injected into each of 300 NOD SCID mice without immune leakage, so as to reconstruct a human immune system in the NOD SCID mice, with the mice after 4 weeks selected for subsequent inoculation of the human non-small cell lung adenocarcinoma cell line H2087-polypeptide […] obtained in 6.2.
(§2) The human non-small cell lung adenocarcinoma cell line H2087-polypeptide […] (SEQ ID NO:1) obtained in 6.2 was incubated in DMEM medium containing 10% fetal calf serum, 100 U/mL penicillin and 100 U/mL streptomycin in an incubator under 37° C. and 5% CO2, and then the cells were centrifuged at 3000 rpm for collection. The collected cells were washed with sterile physiological saline three times, and then diluted appropriately. To 40 μl tumor cell suspension, 10 μl 0.4% […] was added for staining, subsequently the tumor cell suspension in a concentration of 1×10^8 cells/ml was prepared after counting under microscope. 100 μl of the tumor cell suspension was inoculated into each of the NOD/SCID mice by subcutaneous injection at 4 weeks post immune reconstruction in 6.3, with daily observation of the presence/absence of infection at inoculation sites, the increase/decrease of tumor size (in the case of presence of a tumor), and measurement of the major axis (a) and the minor axis (b) of a tumor by a vernier caliper every 2 or 3 days (where the tumor size=a×b×b/2). After 7 days from inoculation, a tumor in a size of rice grain was touchable at the inoculation site. After that, the subcutaneous tumor-modeled NOD/SCID mice (modeled with H2087-polypeptide […] (SEQ ID NO:1)) were treated with a polypeptide+complete Freund's adjuvant vaccine, a polypeptide+DCs vaccine, a lentivirus-infected DCs vaccine and a DC-CTL vaccine respectively, with the tumor size and mouse survival rate observed and recorded every 2 days.
The subcutaneous tumor-modeled NOD/SCID mice obtained in 6.4 of the example 6 were divided into 8 groups randomly as below, with 6 mice per group.
After 2 weeks, differently-immunized mice in 7 groups received respective same-dosage booster immunizations at 2 week interval for 4 times in total, with incomplete Freund's adjuvant for the latter three immunizations.
The general characteristics (including mental state, activity, response, diet, body weight and tumor growth) of the mice were observed daily, where the major axis (a) and the minor axis (b) of a tumor were measured by a vernier caliper every 2 days for calculation of tumor size according to a formula of a×b×b/2, where the mouse survival rate in a time period is calculated by the following formula: Survival rate=the number of survival mice/(the number of survival mice+the number of dead mice)×100%.

[2] = system: human non-small cell lung adenocarcinoma cell line H2087-polypeptide FILDGLYSV; assay: DC polypeptide vaccine in subcutaneous tumor-modeled NOD/SCID mice; format: in vivo; settings: DCs loaded with the polypeptide, intracutaneous, 2 injections; vs DCs loaded with wild-type polypeptide
Procedure: as §1, §2
Peripheral blood mononuclear cells (PBMCs) in 100 to 150 mL anticoagulant peripheral blood obtained from a healthy volunteer were isolated with Ficoll solution. The collected PBMCs suspended in the RPMI 1640 medium in a concentration of 2×10^6-3×10^6 cells/ml were incubated at 37° C. for 2 hours, obtaining adherent monocytes which can be induced into DCs, and non-adherent peripheral blood lymphocytes (PBLs) for use.
The subcutaneous tumor-modeled NOD/SCID mice obtained in 6.4 of the example were randomly divided into seven groups as below, with 6 mice per group.
For each of the above seven groups, DCs (respectively loaded with the wild-type polypeptide, the mutant polypeptide or each of five mutant polypeptide's variants) were washed with physiological saline three times and then diluted with the physiological saline to a concentration of (4.0±0.5)×10^7 cells/ml, and 0.1 ml of the resulting diluent (in a dosage of (4.0±0.5)×10^6 cells) was administrated to each inner thigh close to the inguen of each mouse by intracutaneous injection, at one week interval for 2 injections in total. The vital signs of the mice were observed after administration, and the major axis (a) and the minor axis (b) of a tumor were measured by a vernier caliper every 2 days for calculation of tumor size according to a formula of a×b×b/2, with the weight change and survival rate observed and recorded.

CD8^+ T cells = assay: In vitro stimulation of CD8+ T cells by polypeptide-loaded mature DCs, cell counting; format: cell-based, human; settings: CD8+ T cells with polypeptide-specific mature DCs, day 10; 2.5 × 10^6 cells before incubation
Procedure: Peripheral blood mononuclear cells (PBMCs) in 100 mL peripheral blood obtained from a HLA-A0201-positive healthy volunteer were isolated using the Ficoll solution, where CD8^+ T cells among the PBMCs were isolated with CD8 magnetic beads, and monocytes among the PBMCs were incubated by an adherence method.
The CD8^+ T cells from the volunteer in a well were incubated with the mature DCs obtained, along with IL-21, with addition of IL-2 and IL-7 after 3 days' culture and addition IL-2 and IL-7 again at day 5 and day 7 respectively, after which the collected mixture of cells were counted on day 10, for use in the next enzyme-linked immune-spot assay (ELISPOT) and lactate dehydrogenase (LDH) assay.

[3] = T cells activated by listed polypeptide + T2 cells loaded with mutant FILDGLYSV, effector:target 1:1
[4] = T cells activated by listed polypeptide + T2 cells loaded with mutant FILDGLYSV, effector:target 10:1
[5] = T cells activated by listed polypeptide + T2 cells loaded with wild-type FILDGSYSV, effector:target 1:1
[6] = T cells activated by listed polypeptide + T2 cells loaded with wild-type FILDGSYSV, effector:target 10:1

| Sequence | Killing efficiency (T2 cells; [3]) [%] | Killing efficiency (T2 cells; [4]) [%] | Killing efficiency (T2 cells; [5]) [%] | Killing efficiency (T2 cells; [6]) [%] | Killing of T2 cells loaded with the mutant polypeptide by activated T cells (T2 cells) | Killing of T2 cells loaded with the wild-type polypeptide by activated T cells (T2 cells) | Mouse survival period [1] | Tumor growth [1] | Mouse survival period [2] | Tumor growth [2] | Total number of cells in the well after incubation (CD8^+ T cells) |
| --- | --- | --- | --- | --- | --- | --- | --- | --- | --- | --- | --- |
| FILDGLYSL [mutant polypeptide's variant, Leucine at position 9] | 8.09 | 38.60 | 3.12 | 4.71 | capable of killing | could not kill | prolonging mouse survival period effectively | inhibiting tumor growth | prolonging the mouse survival period | mitigating tumor growth significantly | 1.35 × 10^7 |
| FILDGLYSV [mutant polypeptide from COL21A1, Serine at position 45 mutated into Leucine] | 7.33 | 37.39 | 2.07 | 4.93 | capable of killing | could not kill | prolonging mouse survival period effectively | inhibiting tumor growth | prolonging the mouse survival period | mitigating tumor growth significantly | 1.22 × 10^7 |
| FLLDGLYSL [mutant polypeptide's variant, Leucine at positions 2 and 9] | 7.05 | 35.15 | 3.56 | 6.21 | capable of killing | could not kill | prolonging mouse survival period effectively | inhibiting tumor growth | prolonging the mouse survival period | mitigating tumor growth significantly | 1.03 × 10^7 |
| FLLDGLYSV [mutant polypeptide's variant, Leucine at position 2] | 8.38 | 39.16 | 2.85 | 5.43 | capable of killing | could not kill | prolonging mouse survival period effectively | inhibiting tumor growth | prolonging the mouse survival period | mitigating tumor growth significantly | 1.42 × 10^7 |
| FMLDGLYSL | 8.96 | 40.13 | 3.13 | 5.83 | capable of killing | could not kill | prolonging mouse survival period effectively | inhibiting tumor growth | prolonging the mouse survival period | mitigating tumor growth significantly | 1.66 × 10^7 |
| FMLDGLYSV | 9.15 | 42.10 | 2.37 | 5.63 | capable of killing | could not kill | prolonging mouse survival period effectively | inhibiting tumor growth | prolonging the mouse survival period | mitigating tumor growth significantly | 1.71 × 10^7 |
